Results taken from PubChem BioAssay AID248 (DTP/NCI, 2004).
“And” between values parts separate entries of the source, which are not always exact repeats. Identical values can stand only once. Toxic doses and inconclusive results are not listed. No stated cut-off is given here; in the data, active means T/C of 150% or more; inactive means T/C below 125%.

Test system: L1210 leukemia ip in BDF1 mice, survival T/C
Test: NCI In Vivo Anticancer Drug Screen. Data for tumor model L1210 Leukemia (intraperitoneal) in B6D2F1 (BDF1) mice
Conditions: endpoint: mean survival time, higher = longer survival
Summary of the method: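 Transplanted-tumor mice were given test agent; controls received vehicle only. Survival readings from the two groups were divided (treated over control).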

[1] = dose: 100.0 mg/kg/injection, schedule: Q04DX003 (ip), vehicle: saline with Tween-80
[2] = dose: 200.0 mg/kg/injection, schedule: Q04DX003 (ip), vehicle: saline with Tween-80
[3] = dose: 400.0 mg/kg/injection, schedule: Q04DX003 (ip), vehicle: saline with Tween-80
[4] = dose: 100.0 mg/kg/injection, schedule: Q01DX001 (ip), vehicle: carboxymethylcellulose (CMC)
[5] = dose: 200.0 mg/kg/injection, schedule: Q01DX001 (ip), vehicle: carboxymethylcellulose (CMC)
[6] = dose: 400.0 mg/kg/injection, schedule: Q01DX001 (ip), vehicle: carboxymethylcellulose (CMC)
[7] = dose: 100.0 mg/kg/injection, schedule: Q04DX002 (ip), vehicle: Klucel (hydroxypropylcellulose) (HPC)
[8] = dose: 200.0 mg/kg/injection, schedule: Q04DX002 (ip), vehicle: Klucel (hydroxypropylcellulose) (HPC)

Measured: T/C

COc1cccc2c(Cl)c(CCl)c(C)nc12
inactive: dose: 12.5 mg/kg/injection, schedule: Q01DX009 (ip), vehicle: saline with Tween-80 97 % of control | dose: 25.0 mg/kg/injection, schedule: Q01DX009 (ip), vehicle: saline with Tween-80 97 % of control | dose: 25.0 mg/kg/injection, schedule: Q04DX003 (ip), vehicle: saline with Tween-80 92 % of control | dose: 50.0 mg/kg/injection, schedule: Q01DX009 (ip), vehicle: saline with Tween-80 92 % of control | dose: 50.0 mg/kg/injection, schedule: Q04DX003 (ip), vehicle: saline with Tween-80 97 % of control | [1] 94 % of control and 96 % of control

N#Cc1ccc(Cc2ccc(C#N)cc2)cc1
inactive: dose: 100.0 mg/kg/injection, schedule: Q01DX009 (ip), vehicle: saline with Tween-80 95 % of control | [1] 95 % of control | dose: 200.0 mg/kg/injection, schedule: Q01DX009 (ip), vehicle: saline with Tween-80 97 % of control | [2] 101 % of control | dose: 400.0 mg/kg/injection, schedule: Q01DX009 (ip), vehicle: saline with Tween-80 100 % of control | [3] 106 % of control

Cn1c(=O)c2c(nc(OCCC3CCCCC3)n2C)n(C)c1=O
inactive: dose: 50.0 mg/kg/injection, schedule: Q01DX001 (ip), vehicle: other 90 % of control | dose: 100.0 mg/kg/injection, schedule: Q01DX001 (ip), vehicle: other 95 % of control | dose: 200.0 mg/kg/injection, schedule: Q01DX001 (ip), vehicle: other 90 % of control | dose: 400.0 mg/kg/injection, schedule: Q01DX001 (ip), vehicle: other 93 % of control

CC(C)(C)C1CCCC(=O)CC1 (centres undefined)
inactive: dose: 50.0 mg/kg/injection, schedule: Q01DX001 (ip), vehicle: saline 102 % of control

Ic1ccc(/C=C2\C=Cc3ccccc32)cc1
inactive: [4] 100 % of control | [5] 100 % of control | [6] 100 % of control

Cc1ccc(C)c(NC(=S)NC(=O)c2ccc(Cl)cc2Cl)c1
inactive: dose: 100.0 mg/kg/injection, schedule: Q01DX001 (ip), vehicle: saline with Tween-80 104 % of control | dose: 100.0 mg/kg/injection, schedule: Q04DX002 (ip), vehicle: saline with Tween-80 95 % of control and 100 % of control | [1] 102 % of control | dose: 200.0 mg/kg/injection, schedule: Q01DX001 (ip), vehicle: saline with Tween-80 104 % of control | dose: 200.0 mg/kg/injection, schedule: Q04DX002 (ip), vehicle: saline with Tween-80 96 % of control and 110 % of control | [2] 105 % of control | dose: 400.0 mg/kg/injection, schedule: Q01DX001 (ip), vehicle: saline with Tween-80 100 % of control | dose: 400.0 mg/kg/injection, schedule: Q04DX002 (ip), vehicle: saline with Tween-80 96 % of control and 102 % of control | [3] 100 % of control

COc1ccc(Cl)cc1NC(=O)OC/C=C/c1ccccc1
inactive: dose: 100.0 mg/kg/injection, schedule: Q01DX009 (ip), vehicle: gum acacia 96 % of control | dose: 200.0 mg/kg/injection, schedule: Q01DX009 (ip), vehicle: gum acacia 96 % of control | dose: 400.0 mg/kg/injection, schedule: Q01DX009 (ip), vehicle: gum acacia 87 % of control

CCC(C)C1CC1(Br)Br (centres undefined)
inactive: [1] 100 % of control | [2] 100 % of control | [3] 98 % of control

CC(=O)CCC(C)(C)[N+](=O)[O-]
inactive: dose: 75.0 mg/kg/injection, schedule: Q01DX009 (ip), vehicle: acetone 97 % of control | dose: 150.0 mg/kg/injection, schedule: Q01DX009 (ip), vehicle: acetone 94 % of control | dose: 300.0 mg/kg/injection, schedule: Q01DX009 (ip), vehicle: acetone 95 % of control

COC(=O)C1C(O)C(C)C(O)C(C)C=C(C)C2=C3C(=C(C)C(=O)c4c(O)c(c(C)c(OC(C)=O)c43)NC(=O)C(C)=C/C=C\C(C)C(O)C(C)C1O)OCO2 (centres undefined)
inactive: dose: 20.0 mg/kg/injection, schedule: Q01DX009 (ip), vehicle: saline 105 % of control | dose: 40.0 mg/kg/injection, schedule: Q01DX009 (ip), vehicle: saline 100 % of control | dose: 80.0 mg/kg/injection, schedule: Q01DX009 (ip), vehicle: saline 102 % of control | [7] 96 % of control | dose: 160.0 mg/kg/injection, schedule: Q01DX009 (ip), vehicle: saline 107 % of control | [8] 90 % of control

CN(C)C1c2cc(Cl)ccc2-c2c(Cl)cc(Cl)cc21 (centres undefined)
inactive: dose: 50.0 mg/kg/injection, schedule: Q01DX001 (ip), vehicle: carboxymethylcellulose (CMC) 100 % of control | [4] 102 % of control | [5] 100 % of control | [6] 105 % of control

C/C=C\c1ccc(OC(=O)NC)c(OC)c1
inactive: [4] 99 % of control | dose: 100.0 mg/kg/injection, schedule: Q01DX009 (ip), vehicle: carboxymethylcellulose (CMC) 97 % of control and 104 % of control | [7] 100 % of control | dose: 100.0 mg/kg/injection, schedule: Q04DX002 (ip), vehicle: carboxymethylcellulose (CMC) 98 % of control and 104 % of control | dose: 100.0 mg/kg/injection, schedule: Q04DX003 (ip), vehicle: carboxymethylcellulose (CMC) 96 % of control | [5] 100 % of control | dose: 200.0 mg/kg/injection, schedule: Q01DX009 (ip), vehicle: carboxymethylcellulose (CMC) 103 % of control and 104 % of control | [8] 103 % of control | dose: 200.0 mg/kg/injection, schedule: Q04DX002 (ip), vehicle: carboxymethylcellulose (CMC) 98 % of control and 108 % of control | dose: 200.0 mg/kg/injection, schedule: Q04DX003 (ip), vehicle: carboxymethylcellulose (CMC) 93 % of control | [6] 99 % of control | dose: 400.0 mg/kg/injection, schedule: Q01DX009 (ip), vehicle: carboxymethylcellulose (CMC) 100 % of control and 101 % of control | dose: 400.0 mg/kg/injection, schedule: Q04DX002 (ip), vehicle: Klucel (hydroxypropylcellulose) (HPC) 103 % of control | dose: 400.0 mg/kg/injection, schedule: Q04DX002 (ip), vehicle: carboxymethylcellulose (CMC) 93 % of control and 98 % of control | dose: 400.0 mg/kg/injection, schedule: Q04DX003 (ip), vehicle: carboxymethylcellulose (CMC) 93 % of control

CC1(c2ccc(C(O)c3ccccc3)s2)OCCO1 (centres undefined)
inactive: dose: 33.0 mg/kg/injection, schedule: Q01DX009 (ip), vehicle: carboxymethylcellulose (CMC) 103 % of control | dose: 37.5 mg/kg/injection, schedule: Q04DX003 (ip), vehicle: Klucel (hydroxypropylcellulose) (HPC) 109 % of control | dose: 50.0 mg/kg/injection, schedule: Q01DX009 (ip), vehicle: carboxymethylcellulose (CMC) 98 % of control | dose: 75.0 mg/kg/injection, schedule: Q01DX001 (ip), vehicle: carboxymethylcellulose (CMC) 109 % of control | dose: 75.0 mg/kg/injection, schedule: Q01DX009 (ip), vehicle: carboxymethylcellulose (CMC) 103 % of control | dose: 75.0 mg/kg/injection, schedule: Q04DX003 (ip), vehicle: Klucel (hydroxypropylcellulose) (HPC) 109 % of control | dose: 100.0 mg/kg/injection, schedule: Q01DX001 (ip), vehicle: Klucel (hydroxypropylcellulose) (HPC) 103 % of control | dose: 150.0 mg/kg/injection, schedule: Q01DX001 (ip), vehicle: Klucel (hydroxypropylcellulose) (HPC) 97 % of control | dose: 150.0 mg/kg/injection, schedule: Q01DX009 (ip), vehicle: carboxymethylcellulose (CMC) 113 % of control | dose: 225.0 mg/kg/injection, schedule: Q01DX001 (ip), vehicle: Klucel (hydroxypropylcellulose) (HPC) 109 % of control

O=C(OCC(COC(=O)c1ccccc1)(COC(=O)c1ccccc1)COC(=O)c1ccccc1)c1ccccc1
inactive: dose: 100.0 mg/kg/injection, schedule: Q01DX009 (ip), vehicle: Klucel (hydroxypropylcellulose) (HPC) 91 % of control | dose: 100.0 mg/kg/injection, schedule: Q04DX003 (ip), vehicle: Klucel (hydroxypropylcellulose) (HPC) 91 % of control | dose: 200.0 mg/kg/injection, schedule: Q01DX009 (ip), vehicle: Klucel (hydroxypropylcellulose) (HPC) 105 % of control | dose: 200.0 mg/kg/injection, schedule: Q04DX003 (ip), vehicle: Klucel (hydroxypropylcellulose) (HPC) 99 % of control | dose: 400.0 mg/kg/injection, schedule: Q01DX009 (ip), vehicle: Klucel (hydroxypropylcellulose) (HPC) 96 % of control | dose: 400.0 mg/kg/injection, schedule: Q04DX003 (ip), vehicle: Klucel (hydroxypropylcellulose) (HPC) 98 % of control
